# PMC10945555, “Improving Activity of New Arylurea Agents against Multidrug-Resistant and Biofilm-Producing Staphylococcus epidermidis” (ACS Medicinal Chemistry Letters, 2024)
# Where two headings read alike, the source gives them in different places.
# How the values were obtained:
# horse red blood cells = assay: Hemolytic activity assay
# Experimental: 2.3.3 Hemolytic activity assay
# The hemolytic properties of tested compound were evaluated according to previously reported procedure.6 Defibrinated horse red blood cells purchased from Thermo Fisher Scientific (Germany) were washed with PBS (3000 rpm, 10 min at 4 °C) for three times followed by PBS dilution to obtain a 8% suspension. Then, 100 μL of the resulting suspensions […]
# were treated with 100 μL of tested compound at the final concentration of 200 μM, and incubated at 37 °C for 1 h. Triton X-100 (2%) and PBS were used as positive and negative controls, respectively. After centrifugation at 3000 rpm for 3 min, 100 μL of the supernatants were transferred to a 96 well microtiter plate and the hemoglobin release was determined in a SpectraMax iD3 reader (Molecular Devices) by absorption at 540 nm. […]
# [1] = system: Staphylococcus aureus ATCC BAA-976; assay: MIC, broth microdilution, MDR/BPSA reference strain; type: cell-based; settings: ATCCBAA976; Staphylococcus aureus ATCC BAA-976; read-out: MIC MDR/BPSA
# Method in brief: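 Compounds tested as free bases dissolved in DMSO (1 mg/mL stock); determinations done twice; linezolid as positive control.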
# [2] = system: clinical MDR Staphylococcus epidermidis isolates; assay: MIC, broth microdilution, 81 clinical MDR strains; type: cell-based; settings: Staphylococcus epidermidis
# Method in brief: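 MICs were determined by twofold broth microdilution in cation-adjusted Mueller-Hinton II broth per EUCAST, over 50–0.1 µg/mL, in duplicate. Compounds were tested as free bases dissolved in DMSO; MIC50 and MIC90 were derived across the 81 clinical MDR S. epidermidis strains.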
smiles,measurement,setting,value
O=C(Nc1cccc(Cl)c1)NC1CCN(CCC(Oc2ccc(C(F)(F)F)cc2)c2cccs2)CC1 (stereo not drawn) [Compound 25],%hem (hemolytic activity),"horse red blood cells; 200 μM, 1 h, n = 3",0.54%
same,lysis of erythrocytes,horse red blood cells; concentrations up to 200 μM,None of them caused lysis of erythrocytes
same,MIC,[1],1.6 µg/mL
same,MIC,"[2]; 81 clinical strains (Table S5), read-out: Average of MIC",1.84 µg/mL
same,MIC,"[2]; clinical strain 1 (Table S2), read-out: MIC",0.8 µg/mL
same,MIC,"[2]; clinical strain 1 (Table S5), read-out: MIC",1.6 µg/mL
same,MIC,"[2]; clinical strain 2 (Table S2), read-out: MIC",0.8 µg/mL
same,MIC,"[2]; clinical strain 2 (Table S5), read-out: MIC",1.6 µg/mL
same,MIC,"[2]; clinical strain 3 (Table S2), read-out: MIC",0.8 µg/mL
same,MIC,"[2]; clinical strain 3 (Table S5), read-out: MIC",0.8 µg/mL
same,MIC,"[2]; clinical strain 4 (Table S2), read-out: MIC",3.12 µg/mL
same,MIC,"[2]; clinical strain 4 (Table S5), read-out: MIC",1.6 µg/mL
same,MIC,"[2]; clinical strain 5 (Table S2), read-out: MIC",0.8 µg/mL
same,MIC,"[2]; clinical strain 6 (Table S2), read-out: MIC",1.6 µg/mL
same,MIC,"[2]; clinical strain 6 (Table S5), read-out: MIC",1.6 µg/mL
same,MIC,"[2]; clinical strain 7 (Table S2), read-out: MIC",1.6 µg/mL
same,MIC,"[2]; clinical strain 7 (Table S5), read-out: MIC",1.6 µg/mL
same,MIC,"[2]; clinical strain 8 (Table S2), read-out: MIC",1.6 µg/mL
same,MIC,"[2]; clinical strain 8 (Table S5), read-out: MIC",0.8 µg/mL
same,MIC,"[2]; clinical strain 9 (Table S2), read-out: MIC",0.8 µg/mL
same,MIC,"[2]; clinical strain 9 (Table S5), read-out: MIC",3.12 µg/mL
same,MIC,"[2]; clinical strain 10 (Table S2), read-out: MIC",3.12 µg/mL
same,MIC,"[2]; clinical strain 10 (Table S5), read-out: MIC",3.12 µg/mL
same,MIC,"[2]; clinical strain 11 (Table S2), read-out: MIC",1.6 µg/mL
same,MIC,"[2]; clinical strain 11 (Table S5), read-out: MIC",1.6 µg/mL
same,MIC,"[2]; clinical strain 12 (Table S2), read-out: MIC",3.12 µg/mL
same,MIC,"[2]; clinical strain 12 (Table S5), read-out: MIC",1.6 µg/mL
same,MIC,"[2]; clinical strain 13 (Table S2), read-out: MIC",1.6 µg/mL
same,MIC,"[2]; clinical strain 13 (Table S5), read-out: MIC",1.6 µg/mL
same,MIC,"[2]; clinical strain 14 (Table S2), read-out: MIC",3.12 µg/mL
same,MIC,"[2]; clinical strain 14 (Table S5), read-out: MIC",1.6 µg/mL
same,MIC,"[2]; clinical strain 15 (Table S2), read-out: MIC",1.6 µg/mL
same,MIC,"[2]; clinical strain 15 (Table S5), read-out: MIC",3.12 µg/mL
same,MIC,"[2]; clinical strain 16 (Table S2), read-out: MIC",3.12 µg/mL
same,MIC,"[2]; clinical strain 16 (Table S5), read-out: MIC",1.6 µg/mL
same,MIC,"[2]; clinical strain 17 (Table S2), read-out: MIC",1.6 µg/mL
same,MIC,"[2]; clinical strain 17 (Table S5), read-out: MIC",0.1 µg/mL
same,MIC,"[2]; clinical strain 18 (Table S2), read-out: MIC",1.6 µg/mL
same,MIC,"[2]; clinical strain 18 (Table S5), read-out: MIC",3.12 µg/mL
same,MIC,"[2]; clinical strain 19 (Table S2), read-out: MIC",1.6 µg/mL
same,MIC,"[2]; clinical strain 19 (Table S5), read-out: MIC",0.8 µg/mL
same,MIC,"[2]; clinical strain 20 (Table S2), read-out: MIC",0.1 µg/mL
same,MIC,"[2]; clinical strain 20 (Table S5), read-out: MIC",1.6 µg/mL
same,MIC,"[2]; clinical strain 21 (Table S2), read-out: MIC",1.6 µg/mL
same,MIC,"[2]; clinical strain 21 (Table S5), read-out: MIC",1.6 µg/mL
same,MIC,"[2]; clinical strain 22 (Table S2), read-out: MIC",1.6 µg/mL
same,MIC,"[2]; clinical strain 22 (Table S5), read-out: MIC",0.8 µg/mL
same,MIC,"[2]; clinical strain 23 (Table S2), read-out: MIC",1.6 µg/mL
same,MIC,"[2]; clinical strain 23 (Table S5), read-out: MIC",1.6 µg/mL
same,MIC,"[2]; clinical strain 24 (Table S2), read-out: MIC",0.8 µg/mL
same,MIC,"[2]; clinical strain 24 (Table S5), read-out: MIC",1.6 µg/mL
same,MIC,"[2]; clinical strain 25 (Table S2), read-out: MIC",3.12 µg/mL
same,MIC,"[2]; clinical strain 25 (Table S5), read-out: MIC",0.8 µg/mL
same,MIC,"[2]; clinical strain 26 (Table S2), read-out: MIC",1.6 µg/mL
same,MIC,"[2]; clinical strain 26 (Table S5), read-out: MIC",3.12 µg/mL
same,MIC,"[2]; clinical strain 27 (Table S2), read-out: MIC",0.4 µg/mL
same,MIC,"[2]; clinical strain 27 (Table S5), read-out: MIC",3.12 µg/mL
same,MIC,"[2]; clinical strain 28 (Table S2), read-out: MIC",0.8 µg/mL
same,MIC,"[2]; clinical strain 28 (Table S5), read-out: MIC",0.8 µg/mL
same,MIC,"[2]; clinical strain 29 (Table S2), read-out: MIC",1.6 µg/mL
same,MIC,"[2]; clinical strain 29 (Table S5), read-out: MIC",0.4 µg/mL
same,MIC,"[2]; clinical strain 30 (Table S2), read-out: MIC",3.12 µg/mL
same,MIC,"[2]; clinical strain 30 (Table S5), read-out: MIC",0.8 µg/mL
same,MIC,"[2]; clinical strain 31 (Table S2), read-out: MIC",0.8 µg/mL
same,MIC,"[2]; clinical strain 31 (Table S5), read-out: MIC",1.6 µg/mL
same,MIC,"[2]; clinical strain 32 (Table S2), read-out: MIC",1.6 µg/mL
same,MIC,"[2]; clinical strain 32 (Table S5), read-out: MIC",1.6 µg/mL
same,MIC,"[2]; clinical strain 33 (Table S2), read-out: MIC",3.12 µg/mL
same,MIC,"[2]; clinical strain 33 (Table S5), read-out: MIC",1.6 µg/mL
same,MIC,"[2]; clinical strain 34 (Table S2), read-out: MIC",1.6 µg/mL
same,MIC,"[2]; clinical strain 34 (Table S5), read-out: MIC",1.6 µg/mL
same,MIC,"[2]; clinical strain 35 (Table S2), read-out: MIC",1.6 µg/mL
same,MIC,"[2]; clinical strain 35 (Table S5), read-out: MIC",1.6 µg/mL
same,MIC,"[2]; clinical strain 36 (Table S2), read-out: MIC",0.8 µg/mL
same,MIC,"[2]; clinical strain 36 (Table S5), read-out: MIC",1.6 µg/mL
same,MIC,"[2]; clinical strain 37 (Table S2), read-out: MIC",1.6 µg/mL
same,MIC,"[2]; clinical strain 37 (Table S5), read-out: MIC",1.6 µg/mL
same,MIC,"[2]; clinical strain 38 (Table S2), read-out: MIC",1.6 µg/mL
same,MIC,"[2]; clinical strain 38 (Table S5), read-out: MIC",1.6 µg/mL
same,MIC,"[2]; clinical strain 39 (Table S2), read-out: MIC",1.6 µg/mL
same,MIC,"[2]; clinical strain 39 (Table S5), read-out: MIC",0.8 µg/mL
same,MIC,"[2]; clinical strain 40 (Table S2), read-out: MIC",1.6 µg/mL
same,MIC,"[2]; clinical strain 40 (Table S5), read-out: MIC",0.8 µg/mL
same,MIC,"[2]; clinical strain 41 (Table S2), read-out: MIC",0.8 µg/mL
